Laboratory results: article PMC7667029, “A Targeted Computational Screen of the SWEETLEAD Database Reveals FDA-Approved Compounds with Anti-Dengue Viral Activity” (mBio, 2020)
Entries after “also recorded” stand apart in the source; their conditions may differ. Where two headings read alike, the source gives them in different places.

Key:
NS2B/3 proteinase = target: NS2B/3 proteinase; design: method as in PMID 30228122; conditions: read-out: IC50, inhibition of NS2B/3 proteinase cleavage activity in solution; cited from earlier work
dengue virus [1] = test system: dengue virus; design: method as in PMID 25823617; conditions: read-out: IC50, inhibition of viral growth in cell culture; cited from earlier work
DENV2 [2] = test: Antiviral activity in DENV2-infected Huh7 cells, infectious virus in supernatant by plaque assay; assay type: cell-based, dengue virus; conditions: Dengue virus
Protocol: FIG 2 Pyrimethamine inhibits dengue virus and NS2B/3 proteinase cleavage like ARDP0006. (A) Chemical structures and (B) ROCS overlay of ARDP0006 and pyrimethamine. […] Infectious virus in cell supernatant was quantified by plaque assay at 24 hpi (left y axis, black or red). Cell viability was measured at the same pyrimethamine doses 24 h posttreatment by WST-1 assay (right y axis, gray). Viral titer and cell viability were normalized to DMSO-treated samples. (D) Splenic titers of DENV2-infected AGB6 mice at 4 days postinfection. Mice were infected with 1 × 10^6 PFU DENV2 and treated twice daily with 20 mg/kg pyrimethamine (n = 9) or a vehicle control (n = 10). Data were analyzed by two-tailed unpaired t test. (E) Cleavage kinetics of NS2B/3/4A in the presence of 100 μM pyrimethamine. NS2B/3/4A protein was expressed in vitro and radiolabeled with [^35S]methionine, followed by treatment with 100 μM pyrimethamine or DMSO. Reaction samples were obtained over a 45-min time course, separated by SDS-PAGE, and the fraction of uncleaved proteinase precursor remaining was determined as described previously ([23]). Data from three replicates were fit using single-phase exponential decay functions, and P value was determined by comparing the rate constant, K, of the models using the extra sum-of-squares F test.
Dengue plaque assays were carried out on BHK-21 cells in 24-well plates. Cells were infected with 10-fold serial dilutions of virus, which were allowed to adsorb for at least 1 h at 37°C, and overlaid with standard cell culture medium plus 0.37% (w/vol) sodium bicarbonate and 0.8% (w/vol) Aquacide II (Millipore Calbiochem). After 7 days of incubation at 37°C, 5% CO2, cells were fixed with 5% (final) formaldehyde and stained with crystal violet for plaque enumeration.
Between 4 × 10^4 and 1 × 10^5 Huh7 cells per well were seeded into 24-well plates 1 day prior to infection. Compounds were diluted to 100× final concentration in DMSO and then further diluted 1:100 into appropriate cell culture. Unless otherwise indicated, tested compounds were present for 1 h pretreatment and readministered for posttreatment following infection. […] Media and drugs were removed from cells for infection at a multiplicity of infection (MOI) of 0.1 or 0.5 in 200 μl cold medium per well. After 1 h at 37°C, virus inoculum was removed by aspiration and replaced with medium plus compound or control. After 24-h total infection, infectious virus was quantified by plaque assay. Antiviral IC50 dose-response curves were fitted in GraphPad Prism 8 using the “[inhibitor] versus response, variable slope” function with a constraint “bottom > 0.” IC90 values are defined as the dose at which “y = (span × 0.1) + bottom.”

NS2B/3/4A = target: T1, NS2B/3/4A (Dengue virus type 2, UniProt P29990); test: In vitro translation-based proteinase cleavage assay of NS2B/3/4A precursor; assay type: biochemical; conditions: 100 μM pyrimethamine vs DMSO, 45-min time course, translation extracts
T1 construct: NS2B/3/4A protein was expressed in vitro and radiolabeled with [^35S]methionine; made in house; host or cells: rabbit reticulocyte lysate (TNT coupled T7; Promega), cell-free in vitro translation
Protocol: FIG 2 Pyrimethamine inhibits dengue virus and NS2B/3 proteinase cleavage like ARDP0006. (A) Chemical structures and (B) ROCS overlay of ARDP0006 and pyrimethamine. […] Compounds were added 1 h prior to infection, removed, and then readministered after removal of viral inoculum. Infectious virus in cell supernatant was quantified by plaque assay at 24 hpi (left y axis, black or red). Cell viability was measured at the same pyrimethamine doses 24 h posttreatment by WST-1 assay (right y axis, gray). Viral titer and cell viability were normalized to DMSO-treated samples. (D) Splenic titers of DENV2-infected AGB6 mice at 4 days postinfection. Mice were infected with 1 × 10^6 PFU DENV2 and treated twice daily with 20 mg/kg pyrimethamine (n = 9) or a vehicle control (n = 10). Data were analyzed by two-tailed unpaired t test. […] Reaction samples were obtained over a 45-min time course, separated by SDS-PAGE, and the fraction of uncleaved proteinase precursor remaining was determined as described previously ([23]). Data from three replicates were fit using single-phase exponential decay functions, and P value was determined by comparing the rate constant, K, of the models using the extra sum-of-squares F test. […]
Proteinase cleavage assays were performed as previously described ([23]). […] Protein quantification was performed using ImageQuant TL 8.1 software (GE Healthcare Life Sciences).

dengue virus [3] = test: Initial screening of hit compounds for anti-dengue activity in tissue culture cells (Table S1); assay type: cell-based; conditions: viral titer relative to vehicle, tissue culture cell lines (BHK-21 48 hpi, Fig. S1; Huh7, Fig. 2C, 3C, 4C)
Protocol: For each query molecule, the top 500 compound hits obtained from the ROCS algorithm, as ranked by the Tanimoto combo score (see Data Set S1 in the supplemental material), were manually inspected for similar chemical and structural features. They were further prioritized by factors such as a lack of known side effects, commercial availability, and the intellectual property considerations that would be needed for worldwide, inexpensive use. Fourteen candidates were tested for their effects on dengue virus growth and toxicity in BHK-21 and Huh7 cells (see Table S1 and Fig. S1 in the supplemental material).
Supplementary file : TABLE S1 Summary of hits for lead compounds ARDP0006 and ST-148 screened for anti-dengue activity in tissue culture cells. Hit compounds were tested for anti-dengue activity and cell toxicity in tissue culture cell lines. Antiviral activity is summarized as follows: −, not antiviral, with titer greater than 50% of vehicle; +, weakly antiviral, with titer between 20 and 50% of vehicle; ++, moderately antiviral, with titer between 5 and 20% of vehicle; +++, highly antiviral, with titer less than 5% of vehicle. Toxicity at these doses is represented as follows: −, nontoxic, with cell viability greater than 80% of vehicle; +, mild toxicity, with cell viability between 60 and 80% of vehicle; +++, high toxicity, with cell viability less than 60% of vehicle. Data summarized here are depicted graphically in Fig. S1 and Fig. 2C, 3C, and [4]C. The Tanimoto combo score of each hit during initial ROCS screening is indicated; higher Tanimoto combo scores are indicative of increased chemical similarity. Download Table S1, PDF file, 0.04 MB.
Supplementary file : FIG S1 Initial screening of eliminated hit compounds for anti-dengue activity in tissue culture cells. BHK-21 cells were pretreated with the compounds at the indicated concentrations for 30 min, infected with dengue virus at an MOI of 0.1 PFU/cell for 1 h, and then posttreated with compound. At 48 hpi, cellular supernatant was collected and titered by plaque assay (purple). Cell viability in uninfected cells in the presence of compounds for 48 h was measured by WST assay (gray). Both viral titer and cell viability are normalized to their relative DMSO vehicle control, N = 2. Download FIG S1, PDF file, 0.06 MB.

[4] = ref PubChem database, cited from earlier work; for LD50: single dose
DENV2 [5] = test: DENV2-infected AGB6 mouse model (splenic titer, survival); assay type: in vivo, AGB6 mice; conditions: for Splenic titer of dengue virus: AGB6 mice, 20 mg/kg pyrimethamine twice daily, oral gavage, 4 days postinfection, 20 mg/kg
dengue virus [6] = test: Antiviral activity in VPS34 knockout Huh7 cells; assay type: cell-based; conditions: 5 μM compound, MOI 0.5, 24 hpi
Protocol: FIG 5 Vandetanib and spautin-1 inhibit dengue maturation and egress in a VPS34-independent manner. […] Cells were pretreated for 1 h, infected for 1 h at an MOI of 0.5 PFU/cell, and posttreated for an additional 23 h. N = 4, one-way ANOVA with Dunnett’s multiple-comparison test. ns, not significant (P > 0.05); **, P < 0.01; ****, P < 0.0001. (C) Huh7 cells transfected with a luciferase-expressing RNA replicon were treated with 3 μM vandetanib (orange) or 1% DMSO vehicle control (black) for 1 h prior to transfection and up to 52 h posttransfection. Luciferase intensity was quantified as a measure of viral protein abundance. Luciferase intensity was shown as relative light units (RLU). The use of an RNA replicon that is directly transfected into cells reflects only translation and RNA replication steps of viral infection, not viral packaging or cell exit. N = 4, two-way ANOVA with Sikak’s multiple-comparison test. […] (D) VPS34 was not required for spautin-1 or vandetanib anti-dengue activity. Wild-type and VPS34 knockout Huh7 cells were treated with 5 μM spautin-1, 5 μM vandetanib, or DMSO. Cells were pretreated, infected at an MOI of 0.5, and posttreated as described above for panels A and B. At 24 hpi, cellular supernatant was collected and titered by plaque assay. N ≥ 3. One-way ANOVA with Dunnett’s multiple-comparison test; *, P < 0.05; **, P < 0.01; ***, P < 0.001; ****, P < 0.0001. […]

dengue virus [7] = test: Extracellular and intracellular virus quantification in Huh7 cells; assay type: cell-based; conditions: IC90 dose (spautin-1 2.4 μM, vandetanib 3.6 μM), Huh7, 24 hpi
Protocol: FIG 5 Vandetanib and spautin-1 inhibit dengue maturation and egress in a VPS34-independent manner. […] Cells were pretreated for 1 h, infected for 1 h at an MOI of 0.5 PFU/cell, and posttreated for an additional 23 h. N = 4, one-way ANOVA with Dunnett’s multiple-comparison test. ns, not significant (P > 0.05); **, P < 0.01; ****, P < 0.0001. (C) Huh7 cells transfected with a luciferase-expressing RNA replicon were treated with 3 μM vandetanib (orange) or 1% DMSO vehicle control (black) for 1 h prior to transfection and up to 52 h posttransfection. Luciferase intensity was quantified as a measure of viral protein abundance. Luciferase intensity was shown as relative light units (RLU). The use of an RNA replicon that is directly transfected into cells reflects only translation and RNA replication steps of viral infection, not viral packaging or cell exit. N = 4, two-way ANOVA with Sikak’s multiple-comparison test. […] (D) VPS34 was not required for spautin-1 or vandetanib anti-dengue activity. Wild-type and VPS34 knockout Huh7 cells were treated with 5 μM spautin-1, 5 μM vandetanib, or DMSO. Cells were pretreated, infected at an MOI of 0.5, and posttreated as described above for panels A and B. At 24 hpi, cellular supernatant was collected and titered by plaque assay. N ≥ 3. One-way ANOVA with Dunnett’s multiple-comparison test; *, P < 0.05; **, P < 0.01; ***, P < 0.001; ****, P < 0.0001.
After 1 h, virus inoculum was aspirated and replaced with medium containing compounds or 1% DMSO. After 24-h total infection, extracellular virus was collected in cellular supernatant and quantified by plaque assay. To collect intracellular virus, cells were washed with PBS, incubated for 3 min at 4°C with high-salt buffer (1 M NaCl, 50 mM sodium bicarbonate [pH 9.5]) to detach cell-associated extracellular virus ([63]), washed twice with PBS, detached with 0.25% trypsin-EDTA, and isolated by centrifugation (500 × g, 5 min, 4°C). Infected cell pellets were resuspended in 750 μl cell culture medium, lysed by repeated freeze/thaw in liquid nitrogen followed by 37°C water bath. Debris was removed by centrifugation (3,200 × g, 5 min, 4°C), and infectious intracellular virus was quantified by BHK-21 plaque assay.

[8] = Huh-7, DENV2-infected Huh7 cells, single infectious cycle, plaque assay at 24 hpi, read-out: IC50 of viral inhibition (infectious extracellular virus)

T1 sequence (P29990 1476-2093): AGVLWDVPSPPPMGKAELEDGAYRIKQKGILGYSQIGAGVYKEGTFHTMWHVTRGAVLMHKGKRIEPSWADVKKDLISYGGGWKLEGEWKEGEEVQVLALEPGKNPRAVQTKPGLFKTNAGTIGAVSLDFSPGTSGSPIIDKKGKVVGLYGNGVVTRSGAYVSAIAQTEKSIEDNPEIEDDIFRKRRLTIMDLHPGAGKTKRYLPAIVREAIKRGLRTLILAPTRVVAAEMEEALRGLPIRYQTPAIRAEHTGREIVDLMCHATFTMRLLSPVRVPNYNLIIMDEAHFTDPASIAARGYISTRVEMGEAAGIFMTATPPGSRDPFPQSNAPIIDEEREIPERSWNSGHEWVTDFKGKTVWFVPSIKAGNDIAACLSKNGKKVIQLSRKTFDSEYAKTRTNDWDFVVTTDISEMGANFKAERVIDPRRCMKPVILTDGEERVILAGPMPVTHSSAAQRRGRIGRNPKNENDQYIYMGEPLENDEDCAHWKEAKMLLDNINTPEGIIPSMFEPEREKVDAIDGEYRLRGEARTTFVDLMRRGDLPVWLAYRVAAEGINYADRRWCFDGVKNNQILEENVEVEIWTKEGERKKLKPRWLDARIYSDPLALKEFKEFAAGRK
T1 sequence (P29990 1346-1475): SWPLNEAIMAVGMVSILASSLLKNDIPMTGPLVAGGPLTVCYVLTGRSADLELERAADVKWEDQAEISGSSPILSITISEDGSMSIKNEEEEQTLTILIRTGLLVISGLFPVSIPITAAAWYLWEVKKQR

| Compound | IC50 (NS2B/3 proteinase) | IC50 (dengue virus [1]) | IC50 (DENV2 [2]; DENV2, Huh-7, read-out: IC50 of viral inhibition (infectious extracellular virus)) | Cleavage kinetics of NS2B/3/4A precursor (NS2B/3/4A) | Cleavage kinetics of NS2B/3/4A precursor (NS2B/3/4A; listed as pyrimethamine) | Antiviral (dengue virus [3]) | LD50 ([4]; IP) | LD50 ([4]; Oral) | Acute toxicity in words (Table S2) ([4]; healthy mice) | Splenic titer of dengue virus (DENV2 [5]) | Splenic titer of dengue virus (DENV2 [5]; listed as pyrimethamine) | Mortality on sustained treatment (survival experiments) (DENV2 [5]; infected AGB6 mice, sustained pyrimethamine treatment) | IC50 (DENV2 [2]; [8]) | Antiviral activity in VPS34 knockout cells (dengue virus [6]) | Extracellular viral titer (dengue virus [7]) | Infectious intracellular virus (dengue virus [7]) | IC90 (DENV2 [2]; Huh-7, DENV2-infected Huh7 cells, from dose-response curve fit, 24 hpi) |
| --- | --- | --- | --- | --- | --- | --- | --- | --- | --- | --- | --- | --- | --- | --- | --- | --- | --- |
| O=C1c2c(O)ccc([N+](=O)[O-])c2C(=O)c2c([N+](=O)[O-])ccc(O)c21 [ARDP0006] | 620000 nM | 2700 nM | 590 nM |  |  |  |  |  |  |  |  |  |  |  |  |  |  |
| CCc1nc(N)nc(N)c1-c1ccc(Cl)cc1 [Pyrimethamine, pyrimethamine] |  |  |  | inhibited intramolecular NS2B/3 cleavage | significantly slowed dengue virus NS2B/3 cleavage; also recorded: slowing proteinase cleavage in translation extracts | +++ (highly antiviral, with titer less than 5% of vehicle) | 74 mg/kg | 92 mg/kg | well tolerated | significantly reduced viral splenic burden | reduced viral loads; also recorded: significant reduction in splenic titer | caused marked mortality | 1200 nM |  |  |  |  |
| Fc1ccc(CNc2ncnc3ccc(F)cc23)cc1 [spautin-1] |  |  |  |  |  |  |  |  |  |  |  |  | 1100 nM | retained significant antiviral activity; also recorded: retained their ability to limit dengue virus egress | significantly reduced; also recorded: reduced extracellular virus | unchanged; also recorded: abundant intracellular virus | 2400 nM |
